In US10093683B2, “Factor XIa inhibitors” (Merck Sharp & Dohme Corp., priority 2014, dated 2018):
Where two headings read alike, the source gives them in different places.

Columns and labels:
[1] = biological target: human Factor XIa (Homo sapiens (Human), UniProt P03951); test: Factor XIa Assay; type: biochemical; details: read-out: FXIa Ki
How it was run: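 Ki derived from the dependence of Vo/Vi on inhibitor concentration under a competitive-inhibition model, after pre-equilibration of enzyme and inhibitor. Reaction: 40 pM human FXIa, 100 μM Z-Gly-Pro-Arg-AFC, HEPES 50 mM pH 7.4 with NaCl, CaCl2 and PEG 8000; run at room temperature or 37° C.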

[2] = biological target: Human plasma kallikrein (Homo sapiens (Human), UniProt P03952); test: Kallikrein Assay; type: biochemical; details: purified Human plasma kallikrein 0.5 nM, Acetyl-K-P-R-AFC, pH 7.4; Ki from IC50 by Cheng Prusoff
How it was run: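 Purified human plasma kallikrein (0.5 nM final) with Acetyl-K-P-R-AFC substrate ([…]) in 50 mM HEPES pH 7.4, 150 mM NaCl, 5 mM CaCl2, 0.1% PEG 8000, after enzyme-inhibitor equilibration. Fluorescence (405 ex/510 em) under linear conditions; IC50 from four-parameter fit, converted to Ki by Cheng-Prusoff.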

[3] = purified human Factor XIa 40 pM, Z-Gly-Pro-Arg-AFC 100 μM, pH 7.4

Chain of human Factor XIa (P03951 388-625): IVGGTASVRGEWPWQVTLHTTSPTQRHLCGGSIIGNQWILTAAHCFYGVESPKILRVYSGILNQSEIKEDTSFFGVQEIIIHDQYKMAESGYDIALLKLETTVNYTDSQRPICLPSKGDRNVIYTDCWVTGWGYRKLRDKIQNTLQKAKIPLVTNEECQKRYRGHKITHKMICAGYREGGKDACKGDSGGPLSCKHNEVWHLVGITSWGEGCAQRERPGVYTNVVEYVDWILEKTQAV
Chain of human Factor XIa (P03951 19-387 partner): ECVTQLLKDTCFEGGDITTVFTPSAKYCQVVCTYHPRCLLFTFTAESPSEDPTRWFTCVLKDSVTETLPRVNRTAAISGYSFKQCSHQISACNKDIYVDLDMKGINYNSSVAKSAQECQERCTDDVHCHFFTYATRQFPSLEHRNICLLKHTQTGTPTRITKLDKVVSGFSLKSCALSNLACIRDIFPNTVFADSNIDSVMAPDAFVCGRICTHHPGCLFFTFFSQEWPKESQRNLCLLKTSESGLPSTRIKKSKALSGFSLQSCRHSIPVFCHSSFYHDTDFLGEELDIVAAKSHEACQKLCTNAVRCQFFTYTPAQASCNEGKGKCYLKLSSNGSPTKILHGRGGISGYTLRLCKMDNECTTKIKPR
Chain of Human plasma kallikrein (P03952 391-638): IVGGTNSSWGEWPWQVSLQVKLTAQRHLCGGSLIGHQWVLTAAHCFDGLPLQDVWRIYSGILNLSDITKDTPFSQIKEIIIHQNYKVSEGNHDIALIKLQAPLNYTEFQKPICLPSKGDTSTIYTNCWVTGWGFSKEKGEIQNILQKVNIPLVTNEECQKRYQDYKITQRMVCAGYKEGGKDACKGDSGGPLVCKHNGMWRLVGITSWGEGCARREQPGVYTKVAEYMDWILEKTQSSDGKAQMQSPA
Chain of Human plasma kallikrein (P03952 20-390 partner): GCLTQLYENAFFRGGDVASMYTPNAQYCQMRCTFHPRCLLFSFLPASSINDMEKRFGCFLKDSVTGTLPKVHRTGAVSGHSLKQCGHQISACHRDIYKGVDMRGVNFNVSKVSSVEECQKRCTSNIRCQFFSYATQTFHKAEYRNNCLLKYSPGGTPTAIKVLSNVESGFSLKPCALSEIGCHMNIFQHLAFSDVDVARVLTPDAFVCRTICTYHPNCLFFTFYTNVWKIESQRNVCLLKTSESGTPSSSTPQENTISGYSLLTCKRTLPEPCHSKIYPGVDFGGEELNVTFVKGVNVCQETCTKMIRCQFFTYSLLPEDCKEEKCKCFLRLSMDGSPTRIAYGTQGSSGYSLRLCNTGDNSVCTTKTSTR

Ki [1] [nM]	Ki [2] [nM]	Ki [1, 3] [nM]	Compound
0.4	0.95		Nc1n[nH]c2cc(C(=O)N[C@@H](Cc3ccccc3)C(=O)N3CCCC4(C3)OC(=O)Nc3ccc(Cl)c(F)c34)ccc12 (some centres unmarked) [Example 225]
4.28	1.49		CC(=O)Nc1ccc(C(=O)N[C@@H](Cc2ccccc2)C(=O)N2CCC[C@@]3(C2)OC(=O)Nc2ccc(Cl)c(F)c23)cc1 [Example 240, 4-acetamido-N-((S)-1-((R)-6-chloro-5-fluoro-2-oxo-1,2-dihydrospiro[benzo[d][1,3]oxazine-4,3′-piperidin]-1′-yl)-1-oxo-3-phenylpropan-2-yl)benzamide]
17.3	2.72		COCC(=O)Nc1ccc(C(=O)N[C@@H](Cc2ccccc2)C(=O)N2CCC[C@@]3(C2)OC(=O)Nc2ccc(Cl)c(F)c23)cc1 [Example 230, N-((S)-1-((R)-6-chloro-5-fluoro-2-oxo-1,2-dihydrospiro[benzo[d][1,3]oxazine-4,3′-piperidin]-1′-yl)-1-oxo-3-phenylpropan-2-yl)-4-(2-methoxyacetamido)benzamide]
	< 1.36	0.77	COC(=O)Nc1ccc(C(=O)N[C@@H](CC(=O)N2CC[C@@H]2C)C(=O)N2CCC[C@@]3(C2)OC(=O)Nc2ccc(Cl)cc23)cc1 [Example 102, methyl (4-(((S)-1-((R)-6-chloro-2-oxo-1,2-dihydrospiro[benzo[d][1,3]oxazine-4,3′-piperidin]-1′-yl)-4-((S)-2-methylazetidin-1-yl)-1,4-dioxobutan-2-yl)carbamoyl)phenyl)carbamate]
	4.92	10.2	COC(=O)Nc1ccc(C(=O)N[C@@H](CC(C)(C)OC)C(=O)N2CCC[C@@]3(C2)OC(=O)Nc2ccc(Cl)c(F)c23)cc1 [Example 119, methyl (4-(((2S)-1-(6-chloro-5-fluoro-2-oxo-1,2-dihydrospiro[benzo[d][1,3]oxazine-4,3′-piperidin]-1′-yl)-4-methoxy-4-methyl-1-oxopentan-2-yl)carbamoyl)phenyl)carbamate]
4.4	1		Nc1n[nH]c2cc(C(=O)N[C@@H](CC3CC3)C(=O)N3CCC[C@@]4(C3)OC(=O)Nc3ccc(Cl)cc34)ccc12 [Example 200]
0.6	0.6		O=C1Nc2ccc(Cl)cc2[C@@]2(CCCN(C(=O)[C@H](Cc3ccccc3)NC(=O)c3ccc4[nH]c(=O)cc(O)c4c3)C2)O1 [Example 199]

Continued, compound first:

Compound	Ki [1] [nM]	Ki [2] [nM]	Ki [1, 3] [nM]
COC(=O)Nc1ccc(C(=O)N[C@@H](CCSC)C(=O)N2CCC[C@@]3(C2)OC(=O)Nc2ccc(Cl)cc23)cc1 [Example 57, methyl (4-(((S)-1-((R)-6-chloro-2-oxo-1,2-dihydrospiro[benzo[d][1,3]oxazine-4,3′-piperidin]-1′-yl)-4-(methylthio)-1-oxobutan-2-yl)carbamoyl)phenyl)carbamate]		1.43	4.9
COC(=O)Nc1ccc(C(=O)N[C@@H](Cc2ccc(-c3cn[nH]c3)cc2)C(=O)N2CC[C@@]3(C2)OC(=O)Nc2ccc(Cl)cc23)cc1 [Example 78, methyl (4-(((S)-3-(4-(1H-pyrazol-4-yl)phenyl)-1-((R)-6-chloro-2-oxo-1,2-dihydrospiro[benzo[d][1,3]oxazine-4,3′-pyrrolidin]-1′-yl)-1-oxopropan-2-yl)carbamoyl)phenyl)carbamate]		24.5	2.37
COC(=O)Nc1ccc(C(=O)N[C@@H](CC(C)C)C(=O)N2CCC[C@@]3(C2)OC(=O)Nc2ccc(Cl)cc23)cc1 [Example 60, methyl (4-(((S)-1-((R)-6-chloro-2-oxo-1,2-dihydrospiro[benzo[d][1,3]oxazine-4,3′-piperidin]-1′-yl)-4-methyl-1-oxopentan-2-yl)carbamoyl)phenyl)carbamate]		3.31	48.9
COC(=O)Nc1ccc(C(=O)N[C@@H](CC(=O)NCc2ccnn2C)C(=O)N2CCC[C@@]3(C2)OC(=O)Nc2ccc(Cl)cc23)cc1 [Example 98, methyl (4-(((S)-1-((R)-6-chloro-2-oxo-1,2-dihydrospiro[benzo[d][1,3]oxazine-4,3′-piperidin]-1′-yl)-4-(((1-methyl-1H-pyrazol-5-yl)methyl)amino)-1,4-dioxobutan-2-yl)carbamoyl)phenyl)carbamate]		25.4	38.3
COC(=O)Nc1ccc(C(=O)N[C@@H](Cc2cncn2C)C(=O)N2CCC[C@@]3(C2)OC(=O)Nc2ccc(Cl)cc23)cc1 [Example 53, methyl (4-(((S)-1-((R)-6-chloro-2-oxo-1,2-dihydrospiro[benzo[d][1,3]oxazine-4,3′-piperidin]-1′-yl)-3-(1-methyl-1H-imidazol-5-yl)-1-oxopropan-2-yl)carbamoyl)phenyl)carbamate]		2.21	15.5
COC(=O)Nc1ccc(C(=O)N[C@@H](Cc2ccccc2)C(=O)N2CCC[C@@]3(C2)OC(=O)Nc2ccc(C)cc23)cc1 [Example 15, methyl (4-(((S)-1-((R)-6-methyl-2-oxo-1,2-dihydrospiro[benzo[d][1,3]oxazine-4,3′-piperidin]-1′-yl)-1-oxo-3-phenylpropan-2-yl)carbamoyl)phenyl)carbamate]		2.8	5.5
